The values below come from patent US11939340B2, “CDK inhibitors and their use as pharmaceuticals” (Prelude Therapeutics Incorporated, priority 2022, dated 2024).

The structures appear in SMILES notation.

For assay [1], the target named is CDK2/Cyclin E2 (Homo sapiens, UniProt P24941). The assay can be described thus: CDK2/CyclinE2 Enzymatic Activity Assay (TR-FRET). Type of assay: biochemical. Conditions: CDK2/CyclinE2 1 nM, ATP 1 mM, read-out: CDK2_El IC50. How it is done:
CDK2/CyclinE2 Enzymatic Activity Assay
The inhibitory activity of compounds was evaluated in vitro using TR-FRET assay with white 384-well low volume microplate (Greiner Bio-One). CDK2/Cyclin E2 catalyzed phosphorylation of peptide in the presence and absence of compounds was measured and used in IC50 determination. Recombinant protein complex CDK2/Cyclin E2, expressed from insect cell, was purchased from ProQinase. Testing compounds were dissolved in DMSO at 1 mM and tested in 9-dose IC50 mode. The reaction mixture was prepared by mixing CDK2/CyclinE2 (1 nM final), ULight-4E-BP1 (50 nM final, Perkinelmer, TRF0128-D), and ATP (1 mM final) in assay buffer (20 mM of HEPES pH 7.4, 1 mM of EGTA, 0.05% BSA, 0.005% Tween 20, and 1 mM TCEP). The compound of interest in DMSO was added to each well in 3-fold serial dilution by dispenser (TECAN D300E) to make a 9.9 μL of reaction mixture. After 20 minutes preincubation at room temperature, 0.1 μL MgCl2 (10 mM final) was added to initiate the reaction. Following a 45 minute incubation at 37° C., the reaction was stopped by addition of 2 μL of quenching buffer consisting of Lance detection buffer (Perkinelmer CR97-100C), LANCE Ultra Europium-anti-P-4E-BP1 (Perkinelmer, TRF0216-D), EDTA, and incubate at room temperature for additional 60 minutes in the dark. The reaction signal was measured by Envision multimode plate reader (PerkinElmer, 2102-0010). IC50 values were determined by fitting the data to the standard 4 parameters with Hill Slope using GraphPad Prism software.
On the technique in general: In TR-FRET formats the signal depends on donor and acceptor labels being close together.

For assay [2], the target named is T1, CDK4/Cyclin D1 (Homo sapiens, UniProt P11802).
T1 construct: purchased ProQinase; host or cells: insect cell
The assay can be described thus: CDK4/CyclinD1 Enzymatic Activity Assay (TR-FRET). The assay is classed as biochemical. Particulars: CDK4/CyclinD1 1 nM, ATP 2 mM, read-out: CDK4_D1 IC50. How it is done:
CDK4/CyclinD1 Enzymatic Activity Assay
The inhibitory activity of compounds was evaluated in vitro using TR-FRET assay with white 384-well low volume microplate (Greiner Bio-One). CDK4/Cyclin D1 catalyzed phosphorylation of peptide in the presence and absence of compounds was measured and used in IC50 determination. Recombinant protein complex CDK4/Cyclin D1, expressed from insect cell, was purchased from ProQinase. Testing compounds were dissolved in DMSO at 1 mM and tested in 9-dose IC50 mode. The reaction mixture was prepared by mixing CDK4/CyclinD1 (1 nM final), ULight-4E-BP1 (100 nM final, Perkinelmer, TRF0128-D), and ATP (2 mM final) in assay buffer (20 mM of HEPES pH 7.4, 1 mM of EGTA, 0.05% BSA, 0.005% Tween 20, and 1 mM TCEP). The compound of interest in DMSO was added to each well in 3-fold serial dilution by the dispenser (TECAN D300E) to make a 9.9 μL of reaction mixture. After 20 minutes preincubation at room temperature, 0.1 μL MgCl2 (10 mM final) was added to initiate the reaction. Following a 45 minute incubation at 37° C., the reaction was stopped by addition of 2 μL of quenching buffer consisting of Lance detection buffer (Perkinelmer CR97-100C), LANCE Ultra Europium-anti-P-4E-BP1 (Perkinelmer, TRF0216-D), EDTA, and incubated at room temperature for additional 60 minutes in dark. The reaction signal was measured by Envision multimode plate reader (PerkinElmer, 2102-0010). IC50 values were determined by fitting the data to the standard 4 parameters with Hill Slope using GraphPad Prism software.

Assay [3] relates to pRB in OVCAR3 cells. Description: pRB ICW Assay in OVCAR3 Cells. Type of assay: cell-based. Conditions: Homo sapiens, OVCAR-3, incubated with compound for 2 hours, read-out: OVCAR3 p-RB ICW IC50. How it is done:
pRB ICW Assay in OVCAR3 Cells
OVCAR3 cells were maintained in RPMI (Corning, Catalog #: 10-040-CV) supplemented with 10% v/v FBS (Gibco, Catalog #: 26140-079), 1% v/v Penicillin Streptomycin (Gibco, Catalog #15140-122.) OVCAR3 cells grown at log phase were trypsinized, counted, and resuspended in fresh medium to reach a final density of 6.7e4 cells/mL and 75 μL of culture were dispensed into a 384-well plate (Falcon, cat #353962) using a Multidrop Combi dispenser (Thermo Scientific). The next day, compounds were dispensed as a 9-point, ½ log serial dilution using a Tecan digital dispenser (D300e), and cells were incubated with compound for 2 hours in a humidified incubator at 37° C. A reference compound at a final concentration of 10 μM was used as a control for maximum inhibition. Each compound was tested in duplicates for each experiment. At the end of the incubation, 25 μL of 16% paraformaldehyde (Electron Microscopy, cat #15710) was slowly added to each well and the plate was incubated at room temperature (RT) for 30 minutes to fix cells. Cells were then permeabilized by incubating with 50 μL/well of wash buffer (lx PBS with 0.1% Triton X-100) 5×5 minutes, followed by 1 hour blocking with 30 μL/well of Odyssey blocking buffer (Li—COR, cat #927-40000), at RT. Anti-phosphor RB antibody (Cell signaling 8516S) was diluted 1:1000 in Odyssey blocking buffer and 20 μL was added to all wells and incubated overnight in 4° C. with gently rocking. The next day, cells were washed 5×5 min with 50 μL/well of wash buffer, followed with 1 hour incubation with secondary antibody and DRAQ5 diluted in Odyssey blocking buffer (1:500 dilution for secondary antibody and 1:2000 dilution for DRAQ5), 5×5 min washes, and one last wash with water. Plates were dried in 37° C. oven for 5 minutes and scanned using Li—COR Odyssey CLx imaging system to acquire intensities at 700 and 800 nm channels.

T1 sequence (P11802 whole entry): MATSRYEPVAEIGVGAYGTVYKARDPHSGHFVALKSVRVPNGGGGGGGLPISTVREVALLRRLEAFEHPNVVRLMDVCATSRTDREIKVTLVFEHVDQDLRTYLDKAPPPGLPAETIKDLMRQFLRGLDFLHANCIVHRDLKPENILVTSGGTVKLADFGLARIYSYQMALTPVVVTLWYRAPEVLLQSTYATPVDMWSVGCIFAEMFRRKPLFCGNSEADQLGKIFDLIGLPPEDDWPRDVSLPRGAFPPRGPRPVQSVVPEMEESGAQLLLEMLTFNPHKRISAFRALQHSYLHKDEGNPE
T1 sequence (P24385 whole entry partner): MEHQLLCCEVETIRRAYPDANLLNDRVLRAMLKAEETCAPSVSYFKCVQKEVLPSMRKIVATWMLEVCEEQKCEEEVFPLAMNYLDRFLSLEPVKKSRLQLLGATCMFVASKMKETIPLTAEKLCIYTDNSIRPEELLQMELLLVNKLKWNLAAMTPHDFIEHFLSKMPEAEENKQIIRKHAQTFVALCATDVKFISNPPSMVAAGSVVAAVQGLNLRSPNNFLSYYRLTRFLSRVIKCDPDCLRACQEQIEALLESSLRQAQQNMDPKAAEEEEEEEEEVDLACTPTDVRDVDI

Take `CC(C)C12CCCCN1C(=O)c1cc(-c3nc(NC4CCN(S(C)(=O)=O)CC4)ncc3C(F)(F)F)sc12` (stereo not shown) [Example 1, 9a-isopropyl-2-(2-((1-(methylsulfonyl)piperidin-4-yl)amino)-5-(trifluoromethyl)pyrimidin-4-yl)-7,8,9,9a-tetrahydrothieno[2,3-a]indolizin-4(6H)-one]: the half-inhibitory concentration (IC50) – broadly, the concentration that inhibits the measured activity by half – in assay [1] was at most 100 nM; in assay [2], at most 100 nM; in assay [3], 100 to 500 nM.
Regarding `CS(=O)(=O)N1CCC(Nc2ncc(C(F)(F)F)c(-c3cc4c(s3)C3(CCCO)CCCCN3C4=O)n2)CC1` (stereo not shown) [Example 4, 9a-(3-Hydroxypropyl)-2-(2-((1-(methylsulfonyl)piperidin-4-yl)amino)-5-(trifluoromethyl)pyrimidin-4-yl)-7,8,9,9a-tetrahydrothieno[2,3-a]indolizin-4(6H)-one], the IC50 in assay [1] and in assay [2] was at most 100 nM each time.
In the case of `CS(=O)(=O)N1CCC(Nc2ncc(C(F)(F)F)c(-c3cc4c(s3)C3(CCO)CCCCN3C4=O)n2)CC1` (stereo not shown) [Example 5, 9a-(2-Hydroxyethyl)-2-(2-((1-(methylsulfonyl)piperidin-4-yl)amino)-5-(trifluoromethyl)pyrimidin-4-yl)-7,8,9,9a-tetrahydrothieno[2,3-a]indolizin-4(6H)-one], the IC50 in assay [1] and in assay [2] was at most 100 nM throughout.
`CC12CCCCN1C(=O)c1cc(-c3nc(NC4CCN(S(C)(=O)=O)CC4)ncc3F)sc12` (stereo not shown) [Example 6, 2-(5-Fluoro-2-((1-(methylsulfonyl)piperidin-4-yl)amino)pyrimidin-4-yl)-9a-methyl-7,8,9,9a-tetrahydrothieno[2,3-a]indolizin-4(6H)-one]: the IC50 in assay [1], in assay [2] and in assay [3] was at most 100 nM in each case.
Consider `CC(C)C12CCCCN1C(=O)c1cc(-c3nc(NC4CCN(S(C)(=O)=O)CC4)ncc3F)sc12` (stereo not shown) [Example 9, 2-(5-Fluoro-2-((1-(methylsulfonyl)piperidin-4-yl)amino)pyrimidin-4-yl)-9a-isopropyl-7,8,9,9a-tetrahydrothieno[2,3-a]indolizin-4(6H)-one], for which the half-inhibitory concentration (IC50) in assay [1] was at most 100 nM.
For the compound `CC(C)C12CCOCCN1C(=O)c1cc(-c3nc(NC4CCN(S(C)(=O)=O)CC4)ncc3C(F)(F)F)sc12` (stereo not shown) [Example 10, 10a-Isopropyl-2-(2-((1-(methylsulfonyl)piperidin-4-yl)amino)-5-(trifluoro-methyl)pyrimidin-4-yl)-6,7,10,10a-tetrahydrothieno[2′,3′:3,4]pyrrolo[1,2-d][1,4]oxazepin-4(9H)-one], the concentration for half-maximal inhibition (IC50) was at most 100 nM in assay [1], at most 100 nM in assay [2] and 100 to 500 nM in assay [3].
`CC(C)C12CCCN1C(=O)c1cc(-c3nc(NC4CCN(S(C)(=O)=O)CC4)ncc3C(F)(F)F)sc12` (stereo not shown) [Example 11, 8a-Isopropyl-2-(2-((1-(methylsulfonyl)piperidin-4-yl)amino)-5-(trifluoro-methyl)pyrimidin-4-yl)-6,7,8,8a-tetrahydro-4H-thieno[2,3-a]pyrrolizin-4-one]: the 50% inhibitory concentration (IC50) in assay [1] is at most 100 nM; in assay [2], at most 100 nM; in assay [3] it was 100 to 500 nM.
As to `CCC12CCCN1C(=O)c1cc(-c3nc(NC4CCN(S(C)(=O)=O)CC4)ncc3C(F)(F)F)sc12` (stereo not shown) [Example 14, 8a-Ethyl-2-[2-[(1-methylsulfonylpiperidin-4-yl)amino]-5-(trifluoromethyl)pyrimidin-4-yl]-7,8-dihydro-6H-thieno[2,3-a]pyrrolizin-4-one], the IC50 in assay [1], in assay [2] and in assay [3] was at most 100 nM in each case.
Take `CCC12CCCN1C(=O)c1cc(-c3ccnc(NC4CCN(S(C)(=O)=O)CC4)n3)sc12` (stereo not shown) [Example 28, 8a-Ethyl-2-(2-((1-(methylsulfonyl)piperidin-4-yl)amino)pyrimidin-4-yl)-6,7,8,8a-tetrahydro-4H-thieno[2,3-a]pyrrolizin-4-one]: the IC50 in assay [1] and in assay [2] was 100 to 500 nM in each case.
